Values after ≈ are worked out from the molar mass of the structure shown.
Tests used:
Assay in all cases: Bacterial susceptibility testing (MIC, broth microdilution)
Assay type in all cases: cell-based
[1] = tested on: P. aeruginosa PAO1; details: Pseudomonas aeruginosa, PAO1; broth microdilution, cation adjusted Mueller-Hinton Broth, 35° C., 18-24 h; read-out: P. aeruginosa PAO1 MIC
Method: (§1) Minimal inhibitory concentrations (MIC) were determined by the broth microdilution method in accordance with the Clinical and Laboratory Standards Institute (CLSI) guidelines. In brief, organism suspensions were adjusted to a final inoculum between 3×10^5 and 7×10^5 colony-forming units (CFU)/mL. Drug dilutions and inocula were made in sterile, cation adjusted Mueller-Hinton Broth (Beckton Dickinson). In wells, an inoculum volume of 100 μL was mixed to 2 μL of DMSO with 2-fold serial dilutions of drug. All inoculated microdilution trays were incubated in ambient air at 35° C. for 18-24 h. Following incubation, the lowest concentration of the drug that prevented visible growth (OD600 nm<0.05) was recorded as the MIC. Performance of the assay was monitored by the use of laboratory quality -control strains and compounds with defined MIC spectrum, in accordance with CLSI guidelines.

[2] = tested on: P. aeruginosa ATCC27853; details: Pseudomonas aeruginosa, ATCC27853, broth microdilution, cation adjusted Mueller-Hinton Broth, 35° C., 18-24 h; read-out: P. aeruginosa ATCC27853 MIC
Method: as §1

[3] = tested on: K. pneumoniae ATCC13883; details: Klebsiella pneumoniae, ATCC13883, broth microdilution, cation adjusted Mueller-Hinton Broth, 35° C., 18-24 h; read-out: K. pneumoniae ATCC13883 MIC
Method: as §1

[4] = tested on: E. coli ATCC25922; details: Escherichia coli, ATCC25922, broth microdilution, cation adjusted Mueller-Hinton Broth, 35° C., 18-24 h; read-out: E. coli ATCC25922 MIC
Method: as §1

Structure (SMILES) | MIC [1] | MIC [2] | MIC [3] | MIC [4]
C[C@H](O)c1nccn1[C@@H](C#Cc1ccc(-c2ccc(O[C@H]3CCOC[C@@H]3O)c(F)c2)cc1)CO (single isomer, unassigned) [Compound 53] | 4 µg/mL (≈ 8.57 µM) | 8 µg/mL (≈ 17.1 µM) | 4 µg/mL (≈ 8.57 µM) | 1 µg/mL (≈ 2.14 µM)
C[C@H](O)c1nccn1[C@@H](C#Cc1ccc(-c2ccc(O[C@@H]3CCOC[C@H]3O)cc2F)cc1)CO (single isomer, unassigned) [Compound 55] | 4 µg/mL (≈ 8.57 µM) | 8 µg/mL (≈ 17.1 µM) | 4 µg/mL (≈ 8.57 µM) | 1 µg/mL (≈ 2.14 µM)
C[C@H](O)c1nccn1[C@@H](C#Cc1ccc(-c2ccc(NC3COC[C@H]3O)cc2F)cc1)CO (single isomer, unassigned) [Compound 58] | 4 µg/mL (≈ 8.86 µM) | 4 µg/mL (≈ 8.86 µM) | 4 µg/mL (≈ 8.86 µM) | 1 µg/mL (≈ 2.21 µM)
C[C@H](O)c1nccn1[C@@H](C#Cc1ccc(-c2ccc(N[C@H]3COC[C@@H]3O)c(F)c2)cc1)CO (single isomer, unassigned) [Compound 60] | 4 µg/mL (≈ 8.86 µM) | 4 µg/mL (≈ 8.86 µM) | 4 µg/mL (≈ 8.86 µM) | 2 µg/mL (≈ 4.43 µM)
C[C@H](O)c1nccn1[C@@H](C#Cc1ccc(-c2ccc(O[C@@H]3COC[C@H]3O)c(Cl)c2)cc1)CO (single isomer, unassigned) [Compound 62] | 16 µg/mL (≈ 34.1 µM) | > 32 µg/mL | 8 µg/mL (≈ 17.1 µM) | 4 µg/mL (≈ 8.53 µM)
C[C@H](O)c1nccn1[C@@H](C#Cc1ccc(-c2ccc(OC3CN(CC#N)C3)c(F)c2)cc1)CO (single isomer, unassigned) [Compound 64] | 8 µg/mL (≈ 17.4 µM) | 8 µg/mL (≈ 17.4 µM) | 2 µg/mL (≈ 4.34 µM) | 1 µg/mL (≈ 2.17 µM)
CC(=O)N1CC(Nc2ccc(-c3ccc(C#C[C@@H](CO)n4ccnc4[C@H](C)O)cc3)cc2)C1 (single isomer, unassigned) [Compound 76] | 4 µg/mL (≈ 9 µM) | 4 µg/mL (≈ 9 µM) | 16 µg/mL (≈ 36 µM) | 2 µg/mL (≈ 4.5 µM)
C[C@H](O)c1nccn1[C@@H](C#Cc1ccc(-c2ccc(N[C@H]3CCC[C@@H]3O)cc2)cc1)CO (single isomer, unassigned) [Compound 77] | 4 µg/mL (≈ 9.27 µM) | 4 µg/mL (≈ 9.27 µM) | 2 µg/mL (≈ 4.63 µM) | 0.5 µg/mL (≈ 1.16 µM)
CNC(=O)CN1CC(Oc2ccc(-c3ccc(C#C[C@@H](CO)n4ccnc4[C@H](C)O)cc3)cc2)C1 (single isomer, unassigned) [Compound 100] | 2 µg/mL (≈ 4.21 µM) | 2 µg/mL (≈ 4.21 µM) | 2 µg/mL (≈ 4.21 µM) | 1 µg/mL (≈ 2.11 µM)
C[C@H](O)c1nccn1[C@@H](C#Cc1ccc(-c2ccc(OC3CCN(CC#N)CC3)cc2)cc1)CO (single isomer, unassigned) [Compound 103] | 2 µg/mL (≈ 4.25 µM) | 2 µg/mL (≈ 4.25 µM) | 2 µg/mL (≈ 4.25 µM) | 1 µg/mL (≈ 2.13 µM)
C[C@H](O)c1nccn1[C@@H](C#Cc1ccc(-c2ccc(CC3CN(CC#N)C3)cc2)cc1)CO (single isomer, unassigned) [Compound 105] | 4 µg/mL (≈ 9.08 µM) | 4 µg/mL (≈ 9.08 µM) | 1 µg/mL (≈ 2.27 µM) | 1 µg/mL (≈ 2.27 µM)
C[C@H](O)c1nccn1[C@@H](C#Cc1ccc(-c2ccc(OC3COC3)cc2)cc1)CO (single isomer, unassigned) [Compound 107] | 2 µg/mL (≈ 4.94 µM) | 4 µg/mL (≈ 9.89 µM) | 0.5 µg/mL (≈ 1.24 µM) | 0.25 µg/mL (≈ 0.618 µM)
C[C@H](O)c1nccn1[C@@H](C#Cc1ccc(-c2ccc(N3CCC3=O)cc2)cc1)CO (single isomer, unassigned) [Compound 109] | 2 µg/mL (≈ 4.98 µM) | > 32 µg/mL | 1.5 µg/mL (≈ 3.74 µM) | 0.62 µg/mL (≈ 1.54 µM)
Cc1cc(-c2ccc(C#C[C@@H](CO)n3ccnc3[C@H](C)O)cc2)ccc1O[C@@H]1COC[C@H]1O (single isomer, unassigned) [Compound 113] | 32 µg/mL (≈ 71.3 µM) | > 32 µg/mL | 8 µg/mL (≈ 17.8 µM) | 4 µg/mL (≈ 8.92 µM)
Cc1cc(-c2ccc(C#C[C@@H](CO)n3ccnc3[C@H](C)O)cc2)ccc1O[C@H]1COC[C@@H]1O (single isomer, unassigned) [Compound 114] | 16 µg/mL (≈ 35.7 µM) | > 32 µg/mL | 8 µg/mL (≈ 17.8 µM) | 4 µg/mL (≈ 8.92 µM)

More lines, in order of falling MIC [1], values ahead:

MIC [1] | MIC [2] | MIC [3] | MIC [4] | Structure (SMILES)
2 µg/mL (≈ 4.26 µM) | 4 µg/mL (≈ 8.53 µM) | 4 µg/mL (≈ 8.53 µM) | 1 µg/mL (≈ 2.13 µM) | C[C@H](O)c1nccn1[C@@H](C#Cc1ccc(-c2ccc(O[C@H]3COC[C@@H]3O)cc2Cl)cc1)CO (single isomer, unassigned) [Compound 48]
2 µg/mL (≈ 4.29 µM) | 4 µg/mL (≈ 8.57 µM) | 1 µg/mL (≈ 2.14 µM) | 0.5 µg/mL (≈ 1.07 µM) | C[C@H](O)c1nccn1[C@@H](C#Cc1ccc(-c2ccc(CO[C@@H]3COC[C@H]3O)cc2F)cc1)CO (single isomer, unassigned) [Compound 49]
2 µg/mL (≈ 4.29 µM) | 4 µg/mL (≈ 8.57 µM) | 2 µg/mL (≈ 4.29 µM) | 0.5 µg/mL (≈ 1.07 µM) | C[C@H](O)c1nccn1[C@@H](C#Cc1ccc(-c2ccc(CO[C@H]3COC[C@@H]3O)cc2F)cc1)CO (single isomer, unassigned) [Compound 50]
2 µg/mL (≈ 4.29 µM) | 8 µg/mL (≈ 17.1 µM) | 2 µg/mL (≈ 4.29 µM) | 1 µg/mL (≈ 2.14 µM) | C[C@H](O)c1nccn1[C@@H](C#Cc1ccc(-c2ccc(O[C@@H]3CCOC[C@H]3O)c(F)c2)cc1)CO (single isomer, unassigned) [Compound 52]
2 µg/mL (≈ 4.29 µM) | 8 µg/mL (≈ 17.1 µM) | 2 µg/mL (≈ 4.29 µM) | 1 µg/mL (≈ 2.14 µM) | C[C@H](O)c1nccn1[C@@H](C#Cc1ccc(-c2ccc(O[C@H]3CCOC[C@@H]3O)cc2F)cc1)CO (single isomer, unassigned) [Compound 56]
2 µg/mL (≈ 4.43 µM) | 2 µg/mL (≈ 4.43 µM) | 4 µg/mL (≈ 8.86 µM) | 1 µg/mL (≈ 2.21 µM) | C[C@H](O)c1nccn1[C@@H](C#Cc1ccc(-c2ccc(NC3COC[C@@H]3O)cc2F)cc1)CO (single isomer, unassigned) [Compound 57]
2 µg/mL (≈ 4.43 µM) | 4 µg/mL (≈ 8.86 µM) | 4 µg/mL (≈ 8.86 µM) | 1 µg/mL (≈ 2.21 µM) | C[C@H](O)c1nccn1[C@@H](C#Cc1ccc(-c2ccc(N[C@@H]3COC[C@H]3O)c(F)c2)cc1)CO (single isomer, unassigned) [Compound 59]
2 µg/mL (≈ 4.34 µM) | 4 µg/mL (≈ 8.69 µM) | 2 µg/mL (≈ 4.34 µM) | 0.5 µg/mL (≈ 1.09 µM) | C[C@H](O)c1nccn1[C@@H](C#Cc1ccc(-c2ccc(OC3CN(CC#N)C3)cc2F)cc1)CO (single isomer, unassigned) [Compound 63]
2 µg/mL (≈ 4.53 µM) | 4 µg/mL (≈ 9.06 µM) | 4 µg/mL (≈ 9.06 µM) | 1 µg/mL (≈ 2.26 µM) | C[C@H](O)c1nccn1[C@@H](C#Cc1ccc(-c2ccc(NC3CN(CC#N)C3)cc2)cc1)CO (single isomer, unassigned) [Compound 66]
2 µg/mL (≈ 4.14 µM) | 4 µg/mL (≈ 8.29 µM) | 4 µg/mL (≈ 8.29 µM) | 0.5 µg/mL (≈ 1.04 µM) | C[C@H](O)c1nccn1[C@@H](C#Cc1ccc(-c2ccc(OC3CC4(C3)CN(CC#N)C4)cc2)cc1)CO (single isomer, unassigned) [Compound 67]
2 µg/mL (≈ 4.29 µM) | 2 µg/mL (≈ 4.29 µM) | 4 µg/mL (≈ 8.57 µM) | 4 µg/mL (≈ 8.57 µM) | C[C@H](O)c1nccn1[C@@H](C#Cc1ccc(-c2ccc(O[C@@H]3C[S+]([O-])C[C@H]3O)cc2)cc1)CO (single isomer, unassigned) [Compound 74]
2 µg/mL (≈ 4.66 µM) | 4 µg/mL (≈ 9.31 µM) | 1 µg/mL (≈ 2.33 µM) | 0.25 µg/mL (≈ 0.582 µM) | C[C@H](O)c1nccn1[C@@H](C#Cc1ccc(-c2ccc(N3CC4(COC4)C3)cc2)cc1)CO (single isomer, unassigned) [Compound 75]
1 µg/mL (≈ 2.31 µM) | 1 µg/mL (≈ 2.31 µM) | 4 µg/mL (≈ 9.23 µM) | 2 µg/mL (≈ 4.61 µM) | C[C@H](O)c1nccn1[C@@H](C#Cc1ccc(-c2ccc(N[C@@H]3COC[C@H]3O)cc2)cc1)CO (single isomer, unassigned) [Compound 70]
